Laboratory results: patent publication US9969742B2, “Imidazotriazinone compounds” (Ironwood Pharmaceuticals, Inc., priority 2012, dated 2018)

Target: T1, PDE9A2 (Homo sapiens, UniProt O76083)
T1 construct: purchased Reaction Biology Corporation, Malvern, Pa
Experiment: Phosphodiesterase enzyme screening assay, PDE9A2
Type: biochemical
Details: 4.0 μM cGMP substrate, 1 hour at R.T.; read-out: Band (PDE9A2 IC50)
Excerpt: Compounds of the invention were screened against PDE1A, PDE1B, PDE2A, PDE3A, PDE3B, PDE4A1A, PDE4B1, PDE4D3, PDE5A1, PDE6C, PDE7A, PDE8A1, PDE9A2, PDE10A2 AND PDE11A isoforms of the phosphodiesterase enzyme to determine activity and overall selectivity through comparative analysis. […] Where 8-methoxy-IBMX and Zaprinast were used as reference inhibitors.
The phosphodiesterase enzyme isoforms were obtained from a commercial retailer (Reaction Biology Corporation, Malvern, Pa.) for use in the instant screening assay.
The analysis was completed using the Caliper LabChip 3000 and a 12-sipper LabChip. LabChip assays are separations-based, meaning that the product and substrate are electrophoretically separated, thereby minimizing interferences and yielding the highest data quality available on any screening platform. […] High Z′ values, few false positives, few false negatives and analytical quality reproducibility are the reasons cited for the increasing reliance on the LabChip assays.
The off-chip incubation mobility-shift phosphodiesterase assay uses a microfluidic chip to measure the conversion of a fluorescent cyclic AMP substrate to a 5′-AMP product, or a cyclic GMP substrate to a 5′-GMP product. The reaction mixture, from a microtiter plate well, is introduced through a capillary sipper onto the chip, where the fluorescent substrate and product are separated by electrophoresis and detected via laser-induced fluorescence. […] The precision of microfluidics allows researchers to detect subtle interactions between drug candidates and therapeutic targets.
Reactions were carried out in 100 mM HEPES (pH 7.5), 5 mM MgCl2, 1 mM DTT, 0.003% Brij, 4.0 μM cGMP substrate. The reaction was started by addition of cGMP or cAMP and incubated for 1 hour at R.T. The reaction was terminated by the addition of stop buffer containing 100 mM HEPES (pH 7.5), 15 mM EDTA, 0.015% Brij-35, 5% DMSO. Cyclic AMP/GMP substrate and 5′-AMP/5′-GMP product were separated by charge using electrophoretic mobility shift. Product formed was compared to control wells to determine inhibition or enhancement of enzyme activity.
Data points were averages of quadruplicate wells and error bars represented the SEM for each point.

T1 sequence (O76083 1-533 isoform O76083-2): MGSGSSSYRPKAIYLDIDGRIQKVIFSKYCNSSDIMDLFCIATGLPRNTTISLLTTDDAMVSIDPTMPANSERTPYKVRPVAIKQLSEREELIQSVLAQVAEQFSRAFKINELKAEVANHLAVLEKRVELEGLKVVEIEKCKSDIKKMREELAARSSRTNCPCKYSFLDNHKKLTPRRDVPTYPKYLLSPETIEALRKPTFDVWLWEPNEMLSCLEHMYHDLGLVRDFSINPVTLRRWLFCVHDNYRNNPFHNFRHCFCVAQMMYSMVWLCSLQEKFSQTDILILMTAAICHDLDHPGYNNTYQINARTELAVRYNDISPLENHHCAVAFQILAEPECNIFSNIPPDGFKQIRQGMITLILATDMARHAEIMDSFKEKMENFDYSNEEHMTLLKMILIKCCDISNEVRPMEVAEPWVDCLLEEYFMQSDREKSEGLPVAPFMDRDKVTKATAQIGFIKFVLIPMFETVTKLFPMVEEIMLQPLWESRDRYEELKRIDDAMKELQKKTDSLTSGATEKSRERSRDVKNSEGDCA

Row | IC50 [nM] | Structure (SMILES)
1 | < 1000 | CC1CN(Cc2ccccc2)CC1c1nn2c(CC(F)(F)F)ncc2c(=O)[nH]1 (single isomer, unassigned; (+)) [(+)-2-((3,4-trans)-1-benzyl-4-methylpyrrolidin-3-yl)-7-(2,2,2-trifluoroethyl) imidazo [5,1-f] [1,2,4] triazin-4 (3H)-one]

Same assay, conditions: Table 1; 10 concentrations; 4.0 μM cGMP substrate; 1 hour at R.T.; read-out: Band (PDE9A2 IC50)

Row | IC50 [nM] | Structure (SMILES)
2 | 1000 to 10000 | CC1CN(C(=O)c2ccccc2)CC1c1nn2c(C3CCOCC3)ncc2c(=O)[nH]1 (single isomer, unassigned; (+)) [(+)-2-((3,4-trans)-1-benzoyl-4-methylpyrrolidin-3-yl)-7-(tetrahydro-2H-pyran-4-yl)imidazo[5,1-f][1,2,4]triazin-4(3H)-one]
3 | < 1000 | Cc1ccc(F)cc1-c1ncc2c(=O)[nH]c(C3CN(Cc4ccccc4)CC3C)nn12 (single isomer, unassigned; (+)) [(+)-2-((3,4-trans)-1-benzyl-4-methylpyrrolidin-3-yl)-7-(5-fluoro-2-methylphenyl)imidazo[1,5-f][1,2,4]triazin-4(3H)-one]
4 | < 1000 | CC1CN(Cc2ccccc2)CC1c1nn2c(C3CCOCC3)ncc2c(=O)[nH]1 (single isomer, unassigned; (+)) [(+)-2-((3,4-trans)-1-benzyl-4-methylpyrrolidin-3-yl)-7-(tetrahydro-2H-pyran-4-yl)imidazo[1,5-f][1,2,4]triazin-4(3H)-one]
5 | 1000 to 10000 | CC1CN(C(=O)c2ccccc2C#N)CC1c1nn2c(C3CCOCC3)ncc2c(=O)[nH]1 (single isomer, unassigned; (+)) [(+)-2-((3,4-trans)-3-methyl-4-(4-oxo-7-(tetrahydro-2H-pyran-4-yl)-3,4-dihydroimidazo[5,1-f][1,2,4]triazin-2-yl)pyrrolidine-1-carbonyl)benzonitrile]
6 | < 1000 | CC1CN(S(=O)(=O)c2ccccc2)CC1c1nn2c(C3CCOCC3)ncc2c(=O)[nH]1 (single isomer, unassigned; (+)) [(+)-2-((3,4-trans)-4-methyl-1-(phenylsulfonyl)pyrrolidin-3-yl)-7-(tetrahydro-2H-pyran-4-yl)imidazo[5,1-f][1,2,4]triazin-4(3H)-one]
7 | < 1000 | CC1CN(S(=O)(=O)c2cccnc2)CC1c1nn2c(C3CCOCC3)ncc2c(=O)[nH]1 (single isomer, unassigned; (+)) [(+)-2-((3,4-trans)-4-methyl-1-(pyridin-3-ylsulfonyl)pyrrolidin-3-yl)-7-(tetrahydro-2H-pyran-4-yl)imidazo[5,1-f][1,2,4]triazin-4(3H)-one]
8 | < 1000 | CC1CN(Cc2ncccn2)CC1c1nn2c(C3CCOC3)ncc2c(=O)[nH]1 (single isomer, unassigned; (+)) [(+)-2-((3,4-trans)-4-methyl-1-(pyrimidin-2-ylmethyl)pyrrolidin-3-yl)-7-(tetrahydrofuran-3-yl)imidazo[5,1-f][1,2,4]triazin-4(3H)-one]
9 | 1000 to 10000 | CC1CN(C(=O)c2ncccn2)CC1c1nn2c(C3CCOCC3)ncc2c(=O)[nH]1 (single isomer, unassigned; (+)) [(+)-2-((3,4-trans)-4-methyl-1-(pyrimidine-2-carbonyl)pyrrolidin-3-yl)-7-(tetrahydro-2H-pyran-4-yl)imidazo[5,1-f][1,2,4]triazin-4(3H)-one]
10 | < 1000 | CC1CN(Cc2ncc3ccccc3n2)CC1c1nn2c(C3CCOCC3)ncc2c(=O)[nH]1 (single isomer, unassigned; (+)) [(+)-2-((3,4-trans)-4-methyl-1-(quinazolin-2-ylmethyl)pyrrolidin-3-yl)-7-(tetrahydro-2H-pyran-4-yl)imidazo[5,1-f][1,2,4]triazin-4(3H)-one]
11 | < 1000 | CC1CN(Cc2ccc3ccccc3n2)CC1c1nn2c(C3CCOCC3)ncc2c(=O)[nH]1 (single isomer, unassigned; (+)) [(+)-2-((3,4-trans)-4-methyl-1-(quinolin-2-ylmethyl)pyrrolidin-3-yl)-7-(tetrahydro-2H-pyran-4-yl)imidazo[5,1-f][1,2,4]triazin-4(3H)-one]
12 | 1000 to 10000 | CC1CN(S(=O)(=O)c2ccccc2C#N)CC1c1nn2c(C3CCOCC3)ncc2c(=O)[nH]1 (single isomer, unassigned; (+)) [(+)-2-(((3,4-trans)-3-methyl-4-(4-oxo-7-(tetrahydro-2H-pyran-4-yl)-3,4-dihydroimidazo[5,1-f][1,2,4]triazin-2-yl)pyrrolidin-1-yl)sulfonyl)benzonitrile]
13 | > 10000 | CC1CN(S(=O)(=O)c2ccc(C#N)cc2)CC1c1nn2c(C3CCOCC3)ncc2c(=O)[nH]1 (single isomer, unassigned; (+)) [(+)-4-(((3,4-trans)-3-methyl-4-(4-oxo-7-(tetrahydro-2H-pyran-4-yl)-3,4-dihydroimidazo[5,1-f][1,2,4]triazin-2-yl)pyrrolidin-1-yl)sulfonyl)benzonitrile]

Row | Structure (SMILES) | IC50 [nM]
14 | CC1CN(Cc2ccc(C#N)cc2)CC1c1nn2c(C3CCOCC3)ncc2c(=O)[nH]1 (single isomer, unassigned; (+)) [(+)-4-(((3,4-trans)-3-methyl-4-(4-oxo-7-(tetrahydro-2H-pyran-4-yl)-3,4-dihydroimidazo[5,1-f][1,2,4]triazin-2-yl)pyrrolidin-1-yl)methyl)benzonitrile] | < 1000

Same assay, conditions: Table 2; 10 concentrations; 4.0 μM cGMP substrate; 1 hour at R.T.; read-out: Band (PDE9A2 IC50)

Row | IC50 [nM] | Structure (SMILES)
15 | < 1000 | CC1CN(CC(F)(F)F)CC1c1nn2c(C3CCOCC3)ncc2c(=O)[nH]1 (single isomer, unassigned; (+)) [(+)-2-((3,4-trans)-4-methyl-1-(2,2,2-trifluoroethyl)pyrrolidin-3-yl)-7-(tetrahydro-2H-pyran-4-yl)imidazo[5,1-f][1,2,4]triazin-4(3H)-one]
16 | 1000 to 10000 | CC1CN(C(=O)Cc2cncnc2)CC1c1nn2c(C3CCOCC3)ncc2c(=O)[nH]1 (single isomer, unassigned; (+)) [(+)-2-((3,4-trans)-4-methyl-1-(2-(pyrimidin-5-yl)acetyl)pyrrolidin-3-yl)-7-(tetrahydro-2H-pyran-4-yl)imidazo[5,1-f][1,2,4]triazin-4(3H)-one]
17 | < 1000 | CSc1cnc(CN2CC(C)C(c3nn4c(C5CCOCC5)ncc4c(=O)[nH]3)C2)nc1 (single isomer, unassigned; (+)) [(+)-2-((3,4-trans)-4-methyl-1-((5-(methylthio)pyrimidin-2-yl)methyl)pyrrolidin-3-yl)-7-(tetrahydro-2H-pyran-4-yl)imidazo[5,1-f][1,2,4]triazin-4(3H)-one]
18 | < 1000 | CC1CN(Cc2ncc(C(F)(F)F)cn2)CC1c1nn2c(C3CCOCC3)ncc2c(=O)[nH]1 (single isomer, unassigned; (+)) [(+)-2-((3,4-trans)-4-methyl-1-((5-(trifluoromethyl)pyrimidin-2-yl)methyl)pyrrolidin-3-yl)-7-(tetrahydro-2H-pyran-4-yl)imidazo[5,1-f][1,2,4]triazin-4(3H)-one]

Same assay, conditions: read-out: Band (PDE9A2 IC50)

Row | IC50 [nM] | Structure (SMILES)
19 | < 1000 | CC1CN(Cc2cn3ccccc3n2)CC1c1nn2c(-c3ccccc3)ncc2c(=O)[nH]1 (single isomer, unassigned; (+)) [(+)-2-((3,4-trans)-1-(imidazo[1,2-a]pyridin-2-ylmethyl)-4-methylpyrrolidin-3-yl)-7-phenylimidazo[5,1-f][1,2,4]triazin-4(3H)-one]
20 | < 1000 | CC1CN(Cc2ccccc2)CC1c1nn2c(C3CCCC3)ncc2c(=O)[nH]1 (single isomer, unassigned; (+)) [(+)-2-((3,4-trans)-1-benzyl-4-methylpyrrolidin-3-yl)-7-cyclopentylimidazo[5,1-f][1,2,4]triazin-4(3H)-one]
21 | 1000 to 10000 | CC1CN(CC2CCN(C)CC2)CC1c1nn2c(C3CCOCC3)ncc2c(=O)[nH]1 (single isomer, unassigned; (+)) [(+)-2-((3,4-trans)-4-methyl-1-((1-methylpiperidin-4-yl)methyl)pyrrolidin-3-yl)-7-(tetrahydro-2H-pyran-4-yl)imidazo[5,1-f][1,2,4]triazin-4(3H)-one]
22 | < 1000 | CCC(CC)c1ncc2c(=O)[nH]c(C3CN(Cc4ncccn4)CC3C)nn12 (single isomer, unassigned; (+)) [(+)-2-((3,4-trans)-4-methyl-1-(pyrimidin-2-ylmethyl)pyrrolidin-3-yl)-7-(pentan-3-yl)imidazo[5,1-f][1,2,4]triazin-4(3H)-one]
23 | < 1000 | CC1CN(Cc2ncccn2)CC1c1nn2c(-c3ccccc3)ncc2c(=O)[nH]1 (single isomer, unassigned; (+)) [(+)-2-((3,4-trans)-4-methyl-1-(pyrimidin-2-ylmethyl)pyrrolidin-3-yl)-7-phenylimidazo[5,1-f][1,2,4]triazin-4(3H)-one]
